The subject of one data set is S. aureus. Nature of the data set: Antibacterial activity on S. aureus of oxidase/peroxidase with enhancing agents. The class given is cell-based, Staphylococcus aureus. The settings on record: for antibacterial activity of compositions with enhancing agent, substrate and enzyme: FIG. 2; for enhancing activity on glucose/peroxidase antibacterial activity: present experimental setting; for Enhancing effect on oxidase/peroxidase assay: antimicrobial effect; for bactericidal capacity when mixed with the enzyme-substrate solution / effect on cell survival of the separate systems: FIG. 1; for bactericidal capacity when mixed with the enzyme-substrate solution: enhancing agent and ES; for effect on cell survival of the separate systems: enhancing agent only. As to the method:
Bacterial cells (S. aureus) were plated on Trypticase Soybean Agar plates (Becton Dickinson) and incubated overnight at 37° C. Cells were recovered from plates and mixed with NaCl-peptone broth buffer (Merck). The amount of medium is adjusted to give a bacterial suspension with a cell density of OD600=0.25 for bacteria.
For the examples described in the following examples, a fresh dilution of 0.25% (v/v) enzyme-substrate (Biovert™) stock solutions were prepared for each independent test. The Biovert™ enzyme stock solution contains 1527 U/ml lactoperoxidase; 2016 U/ml glucose oxidase; the Biovert™ substrate stock solution comprises: 55% (w/v) glucose, 0.51% (w/v) KSCN, 0.73% (w/v) KI.
In order to assess the synergistic action of the enhancing agent on the enzyme-substrate enhancing agent, the concentration of enzyme-substrate was adjusted to obtain conditions wherein the oxidase/peroxidase in a hydrogel performs limited but measurable antibacterial activity. The above mentioned (0.25% (v/v)) solution has accordingly been further diluted to 0.017% (v/v).
(§1) A 0.33% (w/v) Na-alginaat (Kelset), 0.66% (v/v) PEG400 gel solution was prepared in water, autoclaved and subsequently cooled to room temperature.
(§2) For the antibacterial assay the following components are mixed: 100 μl of bacterial cell suspension, 100 μl enzyme-substrate master solution (0.25%), 1 g (=1 ml) gel solution, 0.1-1 mg enhancing agent, 300 μl milliQ water. Final concentrations of the enzyme/substrate in the reaction mixture are 0.015 U/ml glucose oxidase, 0.011 U/ml lactoperoxidase, 0.00007% (w/v) potassium thiocyanate, 0.0001% (w/v) potassium iodide, 0.0076% glucose, and 0.066-0.66 mg/ml enhancing agent.

For data set [1] the following is noted: cited from earlier work.
Data set [2] is described as follows: DPPH-radical bleaching assay. The settings on record: for Antioxidant properties: DPPH assay: 5 mMole/liter in 1-octanol; for potency as reducer / antioxidant efficiency: FIG. 4. As to the method:
DPPH (1,1-DiPhenyl-2-PicrylHydrazyl) is a cell-permeable, stable free radical that acts as a hydrogen radical scavenger, and is used as a screening tool for detecting free radical scavenging activity of antioxidants. When a radical solution is brought into contact with an antioxidant, the radical-molecule is reduced and thereby looses its characteristic purple colour. This “bleaching” can be monitored by spectrophotometric analysis.
A DPPH-radical solution (15 mg/ml) was prepared freshly in 1-octanol (Sigma) and 900 μl aliquots were transferred to 2 ml spectrophotometer cuvettes. 100 μl of 50 mMole/liter solutions of enhancing agents (dissolved in 1-octanol) were added to the solution (final concentration of the enhancing agents is 5 mMole/liter). Spectrophotometric analysis of the samples was carried out within 5 minutes, in order to prevent quenching caused by free (e.g. air born) radicals.
In general terms: The DPPH test is a chemical assay of radical scavenging.

The next data set in a line: Beta-carotene assay. The settings on record: for Antioxidant properties: Beta-carotene assay: 5 mMole/liter in 1-octanol; for antioxidant performance in the beta carotene bleaching assay: FIG. 3. As to the method:
In this assay, the antioxidant activity of a component is assessed by its ability to prevent bleaching of a beta-carotene solution by radicals formed upon illumination.
A beta-carotene solution (20 mg/ml) was prepared freshly in 1-octanol (Sigma) and 900 μl aliquots were transferred to 2 ml spectrophotometer cuvettes. 100 μl of 50 mMole/liter solutions of enhancing agents of the invention (dissolved in 1-octanol) were added to the solution (final concentration of the enhancing agents is 5 mMole/liter). The solutions were illuminated for up to 5 hours and spectrophotometric analysis was carried out at indicated time points.

For the next data set, the system named is E. coli. The experiment in a line: Antibacterial activity on E. coli of enhancing agents and oxidase/peroxidase. The conditions noted are these: FIG. 7; 6 hours of incubation. The class given is cell-based, Escherichia coli. As to the method: Experiments using the conditions described in Example 1 and 2 were performed with Gram-negative bacteria (E. coli).

The test system of data set [3] is MRSA (methicillin resistant S. aureus) bacteria. Nature of the data set: Antibacterial activity on MRSA of oxidase/peroxidase with enhancing agents. The class given is cell-based, Staphylococcus aureus. The conditions noted are these: FIG. 5. As to the method:
The effect of vanillin and guaiacol on the peroxidase/oxidase activity was assayed on MRSA (methicillin resistant S. aureus) bacteria using growth conditions and assay conditions as described in example 1.

For the next data set, the system named is Candida albicans. The experiment in a line: Growth retardation of Candida albicans in SD broth with enzyme/substrate system. The class given is cell-based. The conditions noted are these: FIG. 9; 0.02% dilution of enzyme/substrate. As for the experimental part:
A yeast cell culture (A600=0.05) was grown in Sabouraud Dextrose (SD) broth (Difco™, Becton Dickinson) in the presence of a 0.02% dilution (suboptimal concentration) of the enzyme/substrate system described in example 1.

The nature of data set [4]: Dispersion or dissolution in the hydrophilic gel setting. The class given is physicochemical. The conditions noted are these: present experimental setting, hydrogel. As for the experimental part: as §1, §2

In brackets after ≈: the same amount, converted by molar mass.

Turning to `O=Cc1ccc(O)c(O)c1` [3,4 dihydroxybenzaldehyde, reference compound], the “antibacterial activity of compositions with enhancing agent, substrate and enzyme” value (from here on “antibacterial activity of compositions”) in the data set with S. aureus is recorded as “less pronounced”.
For the compound `N[C@@H](Cc1c[nH]c2ccc(O)cc12)C(=O)O` [5-hydroxy-tryptophane, reference compound], the “enhancing activity on glucose/peroxidase antibacterial activity” value with S. aureus was “did not show an enhancing activity”.
For `COc1cc(C(C)=O)ccc1O` [Apocynin, 1-(4-hydroxy-3-methoxy-phenyl)ethanone], in data set [1], the Solubility in water is 500 µg/mL (≈ 3.01 mM).
Take `Cc1cc(C(C)(C)C)c(O)c(C(C)(C)C)c1` [BHT, di-tert-butylated hydroxytoluene, reference compound]: in data set [2], the “Antioxidant properties: DPPH assay” value was “++”; the “potency as reducer / antioxidant efficiency” value is “less potent reducers than gallic acid and propyl gallate”. Besides, the “Antioxidant properties: Beta-carotene assay” value in “Beta-carotene assay” was “+++”. In addition, the “Enhancing effect on oxidase/peroxidase assay” value with S. aureus is listed as “+”.
Turning to `CCOc1cc(C=O)ccc1O` [Ethylvanillin, 3-ethoxy-4-hydroxy-benzaldehyde], in the data set on S. aureus, the “bactericidal capacity when mixed with the enzyme-substrate solution” value is given as “markedly enhanced the bactericidal capacity”, the “effect on cell survival of the separate systems” value is listed as “only moderately affected cell survival” and the “Enhancing effect on oxidase/peroxidase assay” value is reported as “+”.
For the compound `O=C(O)c1cc(O)c(O)c(O)c1` [Gallic acid, reference compound], in data set [2], the “Antioxidant properties: DPPH assay” value is given as “+++”. Further, in “Beta-carotene assay”, the “Antioxidant properties: Beta-carotene assay” value is “+++”. Moreover, in the data set on S. aureus, the “antibacterial activity of compositions” value is “less pronounced”; the “Enhancing effect on oxidase/peroxidase assay” value was “+”.
For `CCOc1ccccc1O` [Guaiethol, 2-ethoxyphenol], in data set [1], the Solubility in water is 3100 µg/mL (≈ 22.4 mM). In data set [2], the “Antioxidant properties: DPPH assay” value was “+++”; the “potency as reducer / antioxidant efficiency” value was “nearly as efficient as gallic acid and propyl gallate”. Further, in the data set “Beta-carotene assay”, the “Antioxidant properties: Beta-carotene assay” value is listed as “++” and the “antioxidant performance in the beta carotene bleaching assay” value is “very effective”. Further, in the data set on S. aureus, the “Enhancing effect on oxidase/peroxidase assay” value was “+”.
For `COc1ccc(C=O)cc1O` [Isovanilline, 3-hydroxy-4-methoxy-benzaldehyde], the Solubility in water in data set [1] was 11000 µg/mL (≈ 72.3 mM). Also, in data set [2], the “Antioxidant properties: DPPH assay” value was “−”. Besides, in the data set “Beta-carotene assay”, the “Antioxidant properties: Beta-carotene assay” value was “±”. Moreover, in the data set with S. aureus, the “antibacterial activity of compositions” value is recorded as “less pronounced”; the “Enhancing effect on oxidase/peroxidase assay” value was “−”.
Regarding `COc1cc(O)ccc1O` [Methoxyhydroquinone, 2-methoxybenzene-1,4-diol], the Solubility in water in data set [1] was 33000 µg/mL (≈ 235 mM).
For the compound `CCCOC(=O)c1cc(O)c(O)c(O)c1` [Propylgallate, propyl gallate, reference compound], the “Antioxidant properties: DPPH assay” value in data set [2] is listed as “+++”. In addition, in “Beta-carotene assay”, the “Antioxidant properties: Beta-carotene assay” value is reported as “+++”. In the data set on S. aureus, the “antibacterial activity of compositions” value was “less pronounced”; the “Enhancing effect on oxidase/peroxidase assay” value is reported as “±”.
On to `CCOc1cc(C=O)ccc1O` [Quantrovanil, 3-ethoxy-4-hydroxy-benzaldehyde], for which, in data set [1], the Solubility in water is 280 µg/mL (≈ 1.68 mM).
As to `COc1cc(C(=O)O)ccc1O` [Vanillic acid, 4-hydroxy-3-methoxy-benzoic acid], the “Antioxidant properties: Beta-carotene assay” value in the data set “Beta-carotene assay” was “±”. Also, the “Enhancing effect on oxidase/peroxidase assay” value in the data set on S. aureus is on record as “+”.
Regarding `COc1cc(C=O)ccc1O` [Vanillin, 4-hydroxy-3-methoxy-benzaldehyde], the “antibacterial effectiveness in combination with the enzyme-substrate” value in the data set with E. coli is reported as “more effective than enzyme-substrate alone”. In data set [2], the “Antioxidant properties: DPPH assay” value is recorded as “−” and the “potency as reducer / antioxidant efficiency” value is given as “performed poorly”. For the same compound, in “Beta-carotene assay”, the “Antioxidant properties: Beta-carotene assay” value is listed as “−” and the “antioxidant performance in the beta carotene bleaching assay” value is on record as “performed poorly”. Moreover, the “enhancing effect on the peroxidase/oxidase activity” value in data set [3] (ES + enhancing agent) is reported as “enhancing effect”. The “antibacterial effect of compound alone” value in data set [3] (enhancing agent alone) is “limited effect”. Also, in the data set on S. aureus, the “bactericidal capacity when mixed with the enzyme-substrate solution” value is “markedly enhanced the bactericidal capacity”, the “effect on cell survival of the separate systems” value is reported as “only moderately affected cell survival” and the “Enhancing effect on oxidase/peroxidase assay” value is listed as “+”. Besides, the “suppression of fungal growth on addition to enzyme/substrate system” value in the data set on Candida albicans was “additional suppression of the fungal growth”.
Consider `COc1cccc(O)c1` [m-Guaiacol, 3-methoxyphenol], for which, in data set [1], the Solubility in water is 500 µg/mL (≈ 4.03 mM).
As to `COc1cccc(C=O)c1O` [o-vanillin, 2-hydroxy-3-methoxy-benzaldehyde], the Solubility in water in data set [1] is 500 µg/mL (≈ 3.29 mM).
On to `COc1cc(C=O)cc(OC)c1O` [syringaldehyde], for which the “dispersion or dissolution in hydrophilic media” value in data set [4] is on record as “could not be properly dispersed or dissolved”.
As for `N[C@@H](Cc1ccc(O)cc1)C(=O)O` [tyrosine, reference compound], in the data set on S. aureus, the “enhancing activity on glucose/peroxidase antibacterial activity” value is given as “did not show an enhancing activity”.
As to Vitamin E [reference compound], in data set [2], the “Antioxidant properties: DPPH assay” value is reported as “+”; the “potency as reducer / antioxidant efficiency” value was “less potent reducers than gallic acid and propyl gallate”. Also, the “Antioxidant properties: Beta-carotene assay” value in the data set “Beta-carotene assay” is recorded as “+”. The “Enhancing effect on oxidase/peroxidase assay” value in the data set with S. aureus is “−”.

These data come from patent US8679526B2, “Antimicrobial peroxidase compositions” (Flen Pharma N.V., priority 2005, dated 2014).
